From patent US4294842A, “Anti-protozoal oxadiazole derivatives” (Burroughs Wellcome Co., priority 1978, dated 1981)

What was measured:
P. berghei = assay: Inhibition of P. berghei blood parasitaemia in infected mice (oral); format: in vivo; settings: Plasmodium berghei, 96 h, read-out: Percentage Inhibitions of P. berghei; for inhibition in vivo at 100 mg/kg: 7 × 100 mg/kg, parasitaemia on fourth day vs untreated controls; for inhibition in vivo at 50 mg/kg: 7 × 50 mg/kg
Source text: Groups of five mice were inoculated intraperitoneally with the normal strain of P. berghei. The mice on test received seven oral doses of drug begining on the afternoon of the day of infection then twice a day for the following three days. Blood parasitaemias were estimated on the fourth day and compared with those of the untreated controls.
The results are given in Table 1, the results being expressed as percentage inhibition of P.berghei.

Eimeria tenella [1] = assay: Inhibition of Eimeria tenella in monolayer cultures of chick embryo liver cells; format: cell-based; settings: fixed 90 hours after infection, scale 0 to 4
Description: Monolayer cultures of chick embryo liver cells were seeded onto microtitration plates and treated with the test compound (formulated by suspension in ethanol (0.05 ml) followed by dilution with sterile water (0.95 ml). Sporozoites of Eimeria tenella in culture medium were added and the culture fixed 90 hours after infection. The percentage inhibition compared to controls was determined, the results being expressed on a sacle of 0(0-10% inhibition) to 4(91-100% inhibition). The results are given in Table 2.

Oral LD50 in mice = settings: mouse, in vivo, suspension in 0.25% Celacol
Description: The LD50 of the compound of Example 4 was determined in mice by conventional methods, the compound being administered orally as a suspension in 0.25% Celacol.

Eimeria tenella [2] = assay: Index of inhibition, 400ppm in vivo (Table 2); settings: scale 0 to 4

## Cc1ccc(SCc2ncon2)c(C)c1 [Example 18, 3-(2,4-Dimethylphenylthiomethyl)-1,2,4-oxadiazole]
P. berghei
  inhibition in vivo at 100 mg/kg: 14%
Eimeria tenella [1]; 20μg/ml
  Index of Inhibition: 2

## Nc1ccc(SCC2=NOCN2)cc1 [Example 44, 3-(4-aminophenylthiomethyl)-4,5-dihydro-1,2,4-oxadiazole]
P. berghei
  inhibition in vivo at 100 mg/kg: 10%

## Cc1nc(CSc2ccc(Br)cc2)no1 [Example 22, 3-(4-Bromophenylthiomethyl)-5-methyl-1,2,4-oxadiazole]
P. berghei
  inhibition in vivo at 100 mg/kg: 46%
Eimeria tenella [1]; 20μg/ml
  Index of Inhibition: 2

## CCCCc1ccc(SCc2ncon2)cc1 [Example 32, 3-(4-n-Butylphenylthiomethyl)-1,2,4-oxadiazole]
Eimeria tenella [1]; 20μg/ml
  Index of Inhibition: 2

## Nc1ccc(SCc2ncon2)cc1 [Example 14, 3-(4-Aminophenylthiomethyl)-1,2,4-oxadiazole]
P. berghei
  inhibition in vivo at 100 mg/kg: 41%
Eimeria tenella [1]; 20μg/ml
  Index of Inhibition: 2

## Brc1ccccc1SCc1ncon1 [Example 5, 3-(2-Bromophenylthiomethyl)-1,2,4-oxadiazole]
P. berghei; 7 × 80 mg/kg
  inhibition in vivo at 80 mg/kg: 2%
Eimeria tenella [1]; 20μg/ml
  Index of Inhibition: 1

## c1ccc2cc(SCc3ncon3)ccc2c1 [Example 38, 3-(2-Naphthylthiomethyl)-1,2,4-oxadiazole]
P. berghei
  inhibition in vivo at 100 mg/kg: 21%

## Clc1cc(Cl)c(SCc2ncon2)cc1Cl [Example 21, 3-(2,4-5-Trichlorophenylthiomethyl)-1,2,4-oxadiazole]
P. berghei; 7 × 20 mg/kg
  inhibition in vivo at 20 mg/kg: 18%
P. berghei
  inhibition in vivo at 100 mg/kg: 19%
Eimeria tenella [1]; 20μg/ml
  Index of Inhibition: 4 (91-100% inhibition)

## Oc1ccccc1SCc1ncon1 [Example 29, 3-(2-Hydroxyphenylthiomethyl)-1,2,4-oxadiazole]
P. berghei
  inhibition in vivo at 100 mg/kg: 23%

## COc1cccc(SCc2ncon2)c1 [Example 10, 3-(3-Methoxyphenylthiomethyl)-1,2,4-oxadiazole]
Eimeria tenella [1]; 5μg/ml
  Index of Inhibition: 4 (91-100% inhibition)

## Fc1ccc(SCc2ncon2)cc1 [Example 15, 3-(4-Fluorophenylthiomethyl)-1,2,4-oxadiazole]
P. berghei
  inhibition in vivo at 50 mg/kg: 59%
Eimeria tenella [1]; 20μg/ml
  Index of Inhibition: 3

## Cc1nc(CSc2cccc(C)c2C)no1 [Example 23, 3-(2,3-Dimethylphenylthiomethyl)-5-methyl-1,2,4-oxadiazole]
Eimeria tenella [1]; 20μg/ml
  Index of Inhibition: 3

## CN(C)c1ccc(SCc2ncon2)cc1 [Example 33, 3-(4-N,N-Dimethylaminophenylthiomethyl)-1,2,4-oxadiazole]
P. berghei
  inhibition in vivo at 100 mg/kg: 19%

## O=[N+]([O-])c1ccc(SCc2ncon2)cc1 [Example 12, 3-(4-Nitrophenylthiomethyl)-1,2,4-oxadiazole]
P. berghei
  inhibition in vivo at 100 mg/kg: 14%
Eimeria tenella [1]; 20μg/ml
  Index of Inhibition: 4 (91-100% inhibition)

## Cc1cccc(SCc2ncon2)c1C [Example 17, 3-(2,3-Dimethylphenylthiomethyl)-1,2,4-oxadiazole]
P. berghei
  inhibition in vivo at 100 mg/kg: 62%
Eimeria tenella [1]; 20μg/ml
  Index of Inhibition: 2

## c1ccc(SCc2ncon2)cc1 [Example 4, 3-Phenylthiomethyl-1,2,4-oxadiazole]
P. berghei
  inhibition in vivo at 100 mg/kg: 49%
Oral LD50 in mice
  LD50: ~1600 mg/kg

## Cc1ccc(Br)c(SCc2ncon2)c1 [Example 37, 3-(2-Bromo-5-methylphenylthiomethyl)-1,2,4-oxadiazole]
Eimeria tenella [1]; 5μg/ml
  Index of Inhibition: 2
Eimeria tenella [1]; 20μg/ml
  Index of Inhibition: 3

## Cc1nc(CSc2ccc([N+](=O)[O-])cc2)no1 [Example 24, 3-(4-Nitrophenylthiomethyl)-5-methyl-1,2,4-oxadiazole]
Eimeria tenella [1]; 20μg/ml
  Index of Inhibition: 2

## Brc1ccc(SCc2noc(CSc3ccc(Br)cc3)n2)cc1 [Example 26, 3,5-Di-(4-bromophenylthiomethyl)-1,2,4-oxadiazole]
P. berghei
  inhibition in vivo at 100 mg/kg: 99%
Eimeria tenella [1]; 20μg/ml
  Index of Inhibition: 2

## COc1ccccc1SCc1ncon1 [Example 6, 3-(2-Methoxyphenylthiomethyl)-1,2,4-oxadiazole]
P. berghei
  inhibition in vivo at 50 mg/kg: 5%

## Cc1nc(CSc2ccc(Cl)cc2)no1 [Example 25, 3-(4-Chlorophenylthiomethyl)-5-methyl-1,2,4-oxadiazole]
Eimeria tenella [1]; 20μg/ml
  Index of Inhibition: 2

## Nc1ccccc1SCc1nc(CSc2ccc(Cl)cc2)no1 [Example 40, 5-(2-aminophenylthiomethyl)-3-(4-chlorophenylthiomethyl)-1,2,4-oxadiazole]
P. berghei
  inhibition in vivo at 100 mg/kg: 18%

## Brc1ccc(SCc2ncon2)cc1 [Example 3, 3-(4-Bromophenylthiomethyl)-1,2,4-oxadiazole]
P. berghei
  inhibition in vivo at 100 mg/kg: 71%

## CSc1ccc(SCc2ncon2)cc1 [Example 16, 3-(4-Methylthiophenylthiomethyl)-1,2,4-oxadiazole]
P. berghei
  inhibition in vivo at 100 mg/kg: 4%
Eimeria tenella [1]; 20μg/ml
  Index of Inhibition: 2

## Clc1ccc(SCc2noc(CSc3ccc(Cl)cc3)n2)cc1 [Example 27, 3,5-Di-(4-chlorophenylthiomethyl)1,2,4-oxadiazole]
P. berghei
  inhibition in vivo at 100 mg/kg: 47%

## CC(C)(C)c1ccc(SCc2ncon2)cc1 [Example 34, 3-(4-t-Butylphenylthiomethyl)-1,2,4-oxadiazole]
P. berghei
  inhibition in vivo at 100 mg/kg: 28%

## FC(F)(F)c1cccc(SCc2ncon2)c1 [Example 31, 3-(3-Trifluoromethylphenylthiomethyl)-1,2,4-oxadiazole]
Eimeria tenella [1]; 20μg/ml
  Index of Inhibition: 4 (91-100% inhibition)

## Cc1ccc(SCc2ncon2)cc1 [Example 1, 3-(4-Methylphenylthiomethyl)-1,2,4-oxadiazole]
P. berghei
  inhibition in vivo at 100 mg/kg: 38%

## Cc1cccc(SCc2ncon2)c1 [Example 8, 3-(3-Methylphenylthiomethyl)-1,2,4-oxadiazole]
Eimeria tenella [1]; 20μg/ml
  Index of Inhibition: 3

## c1ccc(Sc2cccc(SCc3ncon3)c2)cc1 [Example 7, 3-(3-Phenylthiophenylthiomethyl)-1,2,4-oxadiazole]
P. berghei
  inhibition in vivo at 100 mg/kg: 2%
Eimeria tenella [1]; 20μg/ml
  Index of Inhibition: 1

## Clc1ccc(SCc2ncon2)cc1Cl [Example 20, 3-(3,4-Dichlorophenylthiomethyl)-1,2,4-oxadiazole]
Eimeria tenella [1]; 20μg/ml
  Index of Inhibition: 3

## Nc1cccc(SCc2ncon2)c1 [Example 9, 3-(3-Aminophenylthiomethyl)-1,2,4-oxadiazole]
P. berghei
  inhibition in vivo at 100 mg/kg: 34%
Eimeria tenella [1]; 20μg/ml
  Index of Inhibition: 2

## c1ccc2c(SCc3ncon3)cccc2c1 [Example 19, 3-(1-Naphthylthiomethyl)-1,2,4-oxadiazole]
P. berghei
  inhibition in vivo at 50 mg/kg: 55%

## COc1ccc(SCc2ncon2)cc1 [Example 13, 3-(4-Methoxyphenylthiomethyl)-1,2,4-oxadiazole]
Eimeria tenella [1]; 20μg/ml
  Index of Inhibition: 2

## N#CSc1ccc(SCc2ncon2)cc1 [Example 45, 3-(4-Thiocyanatophenylthiomethyl)-1,2,4-oxadiazole]
P. berghei; 7 × 10 mg/kg
  inhibition in vivo at 10 mg/kg: 34%
Eimeria tenella [1]; 5μg/ml
  Index of Inhibition: 2

## Clc1ccc(SCc2ncon2)cc1 [Example 36, 3-(4-Chlorophenylthiomethyl)-1,2,4-oxadiazole]
Eimeria tenella [2]
  Index of Inhibition: 4 (91-100% inhibition)
